Test results reported in patent US20220274983A1, “JAK KINASE INHIBITOR AND USE THEREOF” (JIANGSU CAREPHAR PHARMACEUTICAL CO., LTD., priority 2019, published 2022).

How the values were obtained:
TYK2 = TYK2 (Homo sapiens, UniProt P29597); assay: JAK kinase inhibitory activity, HTRF biochemical assay
Method: (§1) The compounds of the above embodiments were applied to the detection and screening of JAK kinase inhibitory activity.
(§2) A corresponding volume of DMSO was added to each well of a first 96-well plate. 20-30 μL of 100-200 μM stock solution of different test compounds were added to each well. The mixture was shaken and mixed for 3 min. All of the compounds were subjected to 3× serial dilution. 60-80 μL Kinase buffer was added to each well of a second 96-well plate, and 1-2 μL of the solution taken from each well of the first 96-well plate was added to the corresponding well of the second 96-well plate. The mixture was shaken and mixed for 3 min. 5 μL of compound dilution taken from each well of the second compound dilution plate was transferred to the corresponding well of a 384-well test plate. 1-2 μL TK Substrate-biotin was added to each well of the test plate. 1-2 μL of enzyme mixture was added to each well. At the same time, a blank well without enzyme was set. 1-2 μL of ATP solution was added to each well, the plate was sealed and reacted at room temperature. The reaction time was as follows: JAK1: 2 h, JAK2: 30 min, JAK3: 30 min, and TYK2: 50 min. 3-5 μL of Streptavidin-XL665 and 3-5 μL of TK Antibody-cryptate were added to each well, the plate was sealed and allowed to stand at room temperature for 30 min to complete the reaction.
(§3) The percentage of inhibition was calculated based on the following formula:
(§4) Inhibition %=[(Ratiomax−Ratiocompound)/(Ratiomax−Ratiomin)]×100%
(§5) Ratiocompound is the HTRF ratio at a given compound concentration, Ratiomin is the HTRF ratio added to the blank well, and Ratiomax is the HTRF ratio without adding the compound. GraphPad Prism 5.0 software was used to plot a sigmoid dose-inhibition rate curve with a non-linear regression model and calculate the IC50 value.

JAK2 = JAK2 (Homo sapiens, UniProt O60674); assay: as above
JAK2, sequence (O60674 whole entry, species assumed): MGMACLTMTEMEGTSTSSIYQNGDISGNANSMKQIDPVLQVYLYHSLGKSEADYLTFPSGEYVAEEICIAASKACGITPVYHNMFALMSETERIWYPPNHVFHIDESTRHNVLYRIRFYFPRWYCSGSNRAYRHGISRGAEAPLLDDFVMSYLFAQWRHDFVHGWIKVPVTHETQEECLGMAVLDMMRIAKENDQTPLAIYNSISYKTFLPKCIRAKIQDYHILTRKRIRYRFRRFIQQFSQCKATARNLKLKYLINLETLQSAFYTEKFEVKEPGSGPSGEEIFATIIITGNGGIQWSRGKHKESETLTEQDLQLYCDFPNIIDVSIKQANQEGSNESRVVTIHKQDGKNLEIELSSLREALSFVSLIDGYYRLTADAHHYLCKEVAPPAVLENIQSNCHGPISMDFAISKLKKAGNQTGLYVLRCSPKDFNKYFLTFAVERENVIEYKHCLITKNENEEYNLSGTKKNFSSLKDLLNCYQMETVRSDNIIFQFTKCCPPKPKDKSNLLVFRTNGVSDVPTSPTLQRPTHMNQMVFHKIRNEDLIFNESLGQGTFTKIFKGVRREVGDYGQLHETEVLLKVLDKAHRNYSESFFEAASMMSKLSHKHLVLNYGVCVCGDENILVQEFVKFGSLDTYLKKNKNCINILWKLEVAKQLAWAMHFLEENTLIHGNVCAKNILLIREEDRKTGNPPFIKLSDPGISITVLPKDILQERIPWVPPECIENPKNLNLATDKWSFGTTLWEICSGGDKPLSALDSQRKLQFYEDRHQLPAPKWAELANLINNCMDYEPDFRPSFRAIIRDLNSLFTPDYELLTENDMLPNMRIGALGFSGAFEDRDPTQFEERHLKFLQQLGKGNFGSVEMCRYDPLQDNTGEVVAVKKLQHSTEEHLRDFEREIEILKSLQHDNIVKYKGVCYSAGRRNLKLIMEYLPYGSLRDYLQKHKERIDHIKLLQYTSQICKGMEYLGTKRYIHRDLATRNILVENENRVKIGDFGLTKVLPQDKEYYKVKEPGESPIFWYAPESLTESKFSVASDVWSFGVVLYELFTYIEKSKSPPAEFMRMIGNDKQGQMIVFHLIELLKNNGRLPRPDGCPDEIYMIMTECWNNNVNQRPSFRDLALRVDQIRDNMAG
Method: as §1, §2, §3, §4, §5

JAK3 = target: T1, JAK3 (Homo sapiens, UniProt P52333); assay: as above
T1 sequence (P52333 1-1124): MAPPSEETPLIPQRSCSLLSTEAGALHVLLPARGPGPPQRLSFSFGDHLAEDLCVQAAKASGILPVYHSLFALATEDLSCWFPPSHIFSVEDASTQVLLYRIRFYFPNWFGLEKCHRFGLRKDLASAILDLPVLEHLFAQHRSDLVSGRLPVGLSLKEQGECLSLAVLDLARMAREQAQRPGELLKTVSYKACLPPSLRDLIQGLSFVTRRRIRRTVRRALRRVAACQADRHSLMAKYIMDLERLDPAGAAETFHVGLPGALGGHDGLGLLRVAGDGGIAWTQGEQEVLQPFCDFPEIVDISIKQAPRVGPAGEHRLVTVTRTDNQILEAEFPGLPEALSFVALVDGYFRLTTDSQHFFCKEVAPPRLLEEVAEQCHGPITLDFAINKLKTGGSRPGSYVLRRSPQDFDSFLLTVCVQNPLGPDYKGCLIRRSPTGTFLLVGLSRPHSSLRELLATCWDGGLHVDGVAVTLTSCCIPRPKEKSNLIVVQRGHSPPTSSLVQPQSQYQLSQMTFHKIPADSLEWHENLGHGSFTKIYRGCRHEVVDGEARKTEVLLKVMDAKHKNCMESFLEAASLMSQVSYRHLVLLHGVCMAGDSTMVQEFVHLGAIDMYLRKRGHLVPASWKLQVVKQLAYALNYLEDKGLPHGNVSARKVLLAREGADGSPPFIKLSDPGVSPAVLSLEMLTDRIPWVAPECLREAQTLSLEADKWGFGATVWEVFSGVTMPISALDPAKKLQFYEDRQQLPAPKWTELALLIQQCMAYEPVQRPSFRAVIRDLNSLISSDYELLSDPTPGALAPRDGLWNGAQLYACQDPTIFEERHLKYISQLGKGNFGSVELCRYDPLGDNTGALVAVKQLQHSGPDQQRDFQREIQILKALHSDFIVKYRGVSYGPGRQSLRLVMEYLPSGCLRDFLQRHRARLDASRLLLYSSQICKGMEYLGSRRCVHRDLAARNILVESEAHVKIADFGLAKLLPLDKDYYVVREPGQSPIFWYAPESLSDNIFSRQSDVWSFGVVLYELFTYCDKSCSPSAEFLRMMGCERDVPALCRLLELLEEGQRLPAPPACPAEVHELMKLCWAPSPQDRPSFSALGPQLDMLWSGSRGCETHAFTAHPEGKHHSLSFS
Method: as §1, §2, §3, §4, §5

JAK1 = JAK1 (Homo sapiens, UniProt P23458); assay: as above
JAK1, sequence (P23458 whole entry, species assumed): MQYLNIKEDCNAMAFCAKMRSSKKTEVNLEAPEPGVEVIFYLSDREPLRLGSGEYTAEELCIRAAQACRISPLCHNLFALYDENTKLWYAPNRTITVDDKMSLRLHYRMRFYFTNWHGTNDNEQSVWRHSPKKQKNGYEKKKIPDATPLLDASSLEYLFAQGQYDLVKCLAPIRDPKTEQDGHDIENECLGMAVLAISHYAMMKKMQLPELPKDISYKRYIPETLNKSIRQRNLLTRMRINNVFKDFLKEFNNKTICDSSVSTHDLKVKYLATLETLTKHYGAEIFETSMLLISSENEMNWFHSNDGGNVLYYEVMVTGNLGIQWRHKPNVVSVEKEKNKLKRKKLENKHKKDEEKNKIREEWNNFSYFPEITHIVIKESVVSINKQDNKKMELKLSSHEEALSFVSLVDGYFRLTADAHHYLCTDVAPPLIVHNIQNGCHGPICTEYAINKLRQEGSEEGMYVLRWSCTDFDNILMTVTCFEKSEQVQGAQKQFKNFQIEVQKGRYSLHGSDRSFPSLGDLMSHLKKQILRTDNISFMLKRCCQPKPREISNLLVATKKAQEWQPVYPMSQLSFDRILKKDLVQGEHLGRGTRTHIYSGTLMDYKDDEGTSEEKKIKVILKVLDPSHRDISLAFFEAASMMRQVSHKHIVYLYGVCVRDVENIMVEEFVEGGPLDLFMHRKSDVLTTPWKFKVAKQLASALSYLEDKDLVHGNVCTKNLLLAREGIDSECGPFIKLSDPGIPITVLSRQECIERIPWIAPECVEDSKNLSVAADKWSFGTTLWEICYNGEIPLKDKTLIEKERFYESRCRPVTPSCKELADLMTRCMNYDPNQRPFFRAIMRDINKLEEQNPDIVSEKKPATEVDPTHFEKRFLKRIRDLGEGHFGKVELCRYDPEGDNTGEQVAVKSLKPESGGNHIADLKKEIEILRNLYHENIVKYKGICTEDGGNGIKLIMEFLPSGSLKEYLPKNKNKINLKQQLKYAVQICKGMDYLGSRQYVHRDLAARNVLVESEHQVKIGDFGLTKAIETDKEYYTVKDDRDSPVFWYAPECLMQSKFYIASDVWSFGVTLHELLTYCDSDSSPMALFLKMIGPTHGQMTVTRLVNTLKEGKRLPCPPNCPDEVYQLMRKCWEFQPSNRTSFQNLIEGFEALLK
Method: as §1, §2, §3, §4, §5

Hela cells = assay: Proliferation inhibition based on Hela cells (OSM stimulation, CTG); format: cell-based; details: Homo sapiens, OSM stimulation, read-out: IC50 (uM), proliferation inhibitory activity on Hela cells
Method: (§6) 1. Cell plating: cultured cells were collected and counted for viable cells with Vi-Cell XR cell counter. The cell suspension was adjusted to an appropriate concentration with the medium and then added to a 96-well cell culture plate. 50 μL-100 μL of the cell suspension was added to each well of the 96-well cell culture plate. The cell plating density depended on the growth rate of the cells. The cells were cultured in corresponding incubators.
2. Drug Treatment and OSM Stimulation
(§7) Firstly, a series of test compound concentration (work solution-1) was prepared using DMSO with 3× gradient dilution, and then it was subjected to fold dilution with RPMI1640+10% FBS to obtain a work solution-2; Cisplatin's work solution-2 was prepared with RPMI1640+10% FBS, and then 1-10 μL solution taken from the work solution-2 was added to the prepared cell wells containing medium. After incubation, 1-10 μL of OSM medium was added to each well and continued to culture. An appropriate CTG solution was added to each well. The mixture was shaken and mixed for 1-5 min and then a luminescence signal was determined with an Envision2104 plate reader.
Cell Survival Rate Calculation
(§8) T is the luminescence reading of a drug treatment group, and C is the average luminescence reading of a solvent control group.

THP1 cells = assay: Proliferation inhibition based on THP1 cells (IL-4 stimulation, CTG); format: cell-based; details: Homo sapiens, THP-1, read-out: IC50 (uM), proliferation inhibitory activity on THP1 cells
Method: as §6, with “80” for “50 μL-100”
as §7, with “2. Drug treatment and IL-4 stimulation: firstly,” for “Firstly,”, “medium. The cells were cultured in the corresponding incubators.” for “medium.”, “IL-4” for “OSM”, “well.” for “well. The mixture was shaken and mixed for 1-5 min and then a luminescence signal was determined with an Envision2104 plate reader.”
Cell Survial Rate Calculation
as §8

TYK2, sequence (P29597 whole entry, species assumed): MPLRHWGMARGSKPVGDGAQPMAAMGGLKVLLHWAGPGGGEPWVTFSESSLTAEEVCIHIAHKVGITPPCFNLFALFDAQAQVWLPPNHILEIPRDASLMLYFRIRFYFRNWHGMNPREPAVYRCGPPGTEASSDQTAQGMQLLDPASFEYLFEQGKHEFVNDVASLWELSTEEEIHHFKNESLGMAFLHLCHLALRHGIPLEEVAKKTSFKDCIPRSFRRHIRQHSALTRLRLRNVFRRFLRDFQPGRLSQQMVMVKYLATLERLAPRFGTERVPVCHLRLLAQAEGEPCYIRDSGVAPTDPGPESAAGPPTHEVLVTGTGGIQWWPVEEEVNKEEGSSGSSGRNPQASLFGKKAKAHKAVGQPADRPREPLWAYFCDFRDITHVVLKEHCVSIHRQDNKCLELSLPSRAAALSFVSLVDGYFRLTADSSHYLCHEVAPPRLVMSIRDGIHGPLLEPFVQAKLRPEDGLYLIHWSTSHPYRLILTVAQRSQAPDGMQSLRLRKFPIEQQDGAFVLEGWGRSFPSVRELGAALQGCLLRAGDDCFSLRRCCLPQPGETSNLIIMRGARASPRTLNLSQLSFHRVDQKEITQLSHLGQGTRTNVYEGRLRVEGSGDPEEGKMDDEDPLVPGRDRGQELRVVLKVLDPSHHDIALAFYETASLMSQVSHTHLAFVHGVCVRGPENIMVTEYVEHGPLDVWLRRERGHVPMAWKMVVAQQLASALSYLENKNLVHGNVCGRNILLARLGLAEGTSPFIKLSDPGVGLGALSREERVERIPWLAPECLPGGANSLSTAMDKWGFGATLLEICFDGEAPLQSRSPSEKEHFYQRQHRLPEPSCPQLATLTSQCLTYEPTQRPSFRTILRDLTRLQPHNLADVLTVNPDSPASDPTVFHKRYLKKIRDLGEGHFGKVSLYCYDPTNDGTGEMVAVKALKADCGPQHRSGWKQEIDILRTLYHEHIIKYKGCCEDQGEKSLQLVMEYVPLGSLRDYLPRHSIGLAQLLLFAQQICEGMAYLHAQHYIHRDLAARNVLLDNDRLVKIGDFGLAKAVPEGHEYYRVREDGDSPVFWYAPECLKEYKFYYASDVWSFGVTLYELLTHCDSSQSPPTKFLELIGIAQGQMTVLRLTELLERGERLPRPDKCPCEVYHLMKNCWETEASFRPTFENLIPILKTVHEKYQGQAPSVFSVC

SMILES	IC50 (TYK2) [nM]	IC50 (JAK2) [nM]	IC50 (JAK3) [nM]	IC50 (JAK1) [nM]	IC50 (Hela cells) [µM]	IC50 (THP1 cells) [µM]
O=C(Nc1nc2cccc(-c3ccc(CN4CCS(=O)(=O)CC4)s3)n2n1)C1CC1 [EXP-1]	> 500	30 to 50	50 to 500	30 to 50	< 5	< 5
O=C(Nc1cn2c(-c3ccc(CN4CCS(=O)(=O)CC4)s3)cccc2n1)[C@H]1C[C@@H]1F (relative stereo) [EXP-3, trans-N-[5-[5-[(1,1-dioxo-1,4-thiazin-4-yl)methyl]-2-thiophene]imidazo[1,2-a]pyridin-2-yl]-2-fluoro-cyclopropylcarboxamide]	> 500	30 to 50	> 500	10 to 30	< 5	< 5
